From patent US20210246140A1, “MODULATORS OF METABOTROPIC GLUTAMATE RECEPTOR 2” (The General Hospital Corporation, priority 2020, published 2021)
pEC50: −log10 of the molar value.

Key:
Determination of Log P = assay type: physicochemical; details: experimental lipophilicity
Description: Determination of Log P The Log P was determined using a reversed-phase HPLC method. First, seven reference compounds were examined to obtain the linear regression of the log P against the log of capacity factors by the expression: log Pow=a+b*log k. The Log P of these reference compounds was already been determined. The capacity factor k was calculated by the expression: k=(tR−t0)/t0. The retention time tR of test compound was determined on the HPLC (Agilent 1260 infinity II LC System, XTerra™ MS Cis 5μ 2.1×250 mm, methanol/water=75/25, 0.25 mL/min). The dead-time to was measured by using thiourea. The linear regression equation of the Log P against the log of capacity factors was generated in Excel: log Pow=3.049+2.429*log k, where R^2 was 0.9964. The retention time of compound 1, 2, and 7 was also determined on the HPLC under the same condition and each test was repeated three times (FIG. 5).
(§1) The experimental lipophilicity was measured by using liquid-liquid partition between n-octanol and water (“shake-flask method”) [see ref. 54]. […] The plasma protein binding comprises compounds' binding to albumin, α1-acid glycoprotein and lipoproteins once delivered to the bloodstream. This property was evaluated for compounds 1 and 2 by equilibrium dialysis [see ref. 56], where two chambers were separated by a dialysis membrane (MWCO 8 kD). The plasma protein bindings of 1 and 2 are 87.2% and 88.7%, respectively (see FIGS. 20 and 6). Therefore, the high plasma free fraction of compounds 1 and 2 (>10%) would allow enough free drug concentration in blood stream to reach the brain targets.

[1] = Plasma protein binding assay (equilibrium dialysis, RED device); assay type: in vitro ADME; details: rat plasma
Description: Disposable RED device inserts (product 90006) were from Thermos Scientific (Waltham, Mass.). Each insert was made of two side-by-side chambers separated by a vertical cylinder of dialysis membrane (MWCO 8,000) validated for minimal non-specific binding. A stock solution of the test compound in DMSO was spiked into the rat plasma to reach a concentration of 10 μM. 400 μL of sample solution was placed into the sample chamber of the RED device, and 600 μL of phosphate-buffered saline (PBS) was added to the buffer chamber of the RED device. Samples were prepared in triplicates. The plate was covered with aluminum sealing cover and incubated at 37° C. on an orbital shaker at approximately 200 rpm for 5 h. After incubation, 300 μL of post-dialysis samples from the buffer and sample chambers were transferred to different microcentrifuge tubes. To the buffer sample was added 300 μL of plasma, and an equal volume of buffer was added to the collected plasma sample. 600 μL of cold acetonitrile was added to the samples, and the samples were vortexed and incubated for 30 min on ice and then were centrifuged at 14000 rpm for 10 min. Supernatant was transferred to vial for HPLC analysis (XTerra™ MS C18 5μ, 2.1×250 mm column; Gradient elution from 5% to 90% B in 30 min; 0.1 M ammonium formate in water (A) and acetonitrile (B); UV 254 nm; 100 μL of injection volume). The percentage of the test bound compound was calculated as % Free=(Concentration in buffer chamber/Concentration in plasma chamber)×100%; % Bound=100%−% Free (FIG. 6).
as §1

[2] = Plasma stability in rat serum; assay type: in vitro ADME; details: 37° C., diltiazem as positive control
Description: Compound stability in rat serum was examined using a published method. [See ref. 57] Rat serum (100 μL, Abeam, Inc, No. ab7488) and test compound or control compound (2.5 μL, 1 mM in DMSO) was added to the individual tube. The tube was vortexed and incubated at 37° C. During the incubation, aliquots of 50 μL samples were quenched with ice-cold acetonitrile at 0, 15, 30, 60, and 120 min time points, respectively. After mixing, the quenched samples were centrifuged, and the supernatant was withdrawn for analysis by HPLC (Agilent 1260 infinity II LC System, XTerra™ MS C18, 5μ, 2.1×250 mm, 20 mM ammonium formate (A)/acetonitrile (B), 0.25 mL/min, gradient of 5% to 100% B). The samples were assayed at least three times. Compound 1-OH was used as internal standard while diltiazem was used as a positive control. The percentage remaining was calculated by (peak area at the specific time point)/(peak area at 0 min)×100% (FIG. 7).
(§2) The in vitro plasma and liver microsomal stability of 1 and 2 were studied by incubating the test compounds in rat serum and rat liver microsomes as well as NADPH cofactor, respectively, using previously published methods [see refs. 57, 58]. […] The solution stability of 1 was evaluated with buffer solutions at pH 5.0, 7.4 and 9.4, respectively (FIGS. 10 and 20) [see refs. 61].

[3] = Microsomal stability in rat liver microsomes; assay type: in vitro ADME; details: rat liver microsomes with NADPH, ML128 as positive control
Description: Compound stability in rat liver microsomal was tested using a published method. [see refs. 57, 58] In a vial 1.5 μL of test compound (1 mM in DMSO stock solution) was mixed with 432 μL of PBS (50 mM, pH 7.4). The mixture was kept at 37° C. for 10 min before adding 13 μL of Sprague-Dawley rat liver microsomes (Sigma-Aldrich, No. M9066). The vial was vortexed and shaken at 37° C. for 5 min, followed by addition of 50 μL of NADPH (10 mM in PBS stock solution) to start the reaction. The mixture was incubated at 37° C. for 0, 5, 15, 30, 45 min, respectively, and quenched by addition of 250 μL of ice-cold acetonitrile and 3 μL of the internal standard (0.5 mM in DMSO). The quenched solutions were centrifuged at 10,000 g for 15 min. The supernatant was collected and quantitated by RP-HPLC (Phenomenex Luna® column 5 μC18, 100 Å, 250×4.6 mm; 0.7 mL/min, 15 min, Acetonitrile/water/0.1% FA). The procedure was repeated three times for each compound. Compound 1-OH was used as internal standard and compound ML128 served as positive control. The percentage of remaining intact test-compound was calculated by (peak area at the specific time point)/(peak area at 0 min)×100%. Each procedure was repeated three times (FIGS. 8 and 9). For FIG. 8, the natural logarithm (In) of peak area ratio (test compound peak area/internal standard peak area) was plotted against time and the gradient of the line was determined. Subsequently, the half-life (t1/2) min was calculated as 0.693/k, where the elimination rate constant (k) equals to negative gradient. V (μL/mg) was obtained as a ratio of volume of incubation (μL)/protein in the incubation (mg). Finally, the intrinsic clearance (CLint) (μL/min/mg protein) was calculated as V×0.693/t1/2.
as §2

mGluR2 = biological target: T1, mGluR2 (Homo sapiens, UniProt Q14416); details: calcium flux, Gα15 or Gα16 forced coupling; read-out: previously reported mGluR2 EC50; cited from earlier work
T1 construct: expressed in transfected cells
T1 sequence (Q14416 19-872): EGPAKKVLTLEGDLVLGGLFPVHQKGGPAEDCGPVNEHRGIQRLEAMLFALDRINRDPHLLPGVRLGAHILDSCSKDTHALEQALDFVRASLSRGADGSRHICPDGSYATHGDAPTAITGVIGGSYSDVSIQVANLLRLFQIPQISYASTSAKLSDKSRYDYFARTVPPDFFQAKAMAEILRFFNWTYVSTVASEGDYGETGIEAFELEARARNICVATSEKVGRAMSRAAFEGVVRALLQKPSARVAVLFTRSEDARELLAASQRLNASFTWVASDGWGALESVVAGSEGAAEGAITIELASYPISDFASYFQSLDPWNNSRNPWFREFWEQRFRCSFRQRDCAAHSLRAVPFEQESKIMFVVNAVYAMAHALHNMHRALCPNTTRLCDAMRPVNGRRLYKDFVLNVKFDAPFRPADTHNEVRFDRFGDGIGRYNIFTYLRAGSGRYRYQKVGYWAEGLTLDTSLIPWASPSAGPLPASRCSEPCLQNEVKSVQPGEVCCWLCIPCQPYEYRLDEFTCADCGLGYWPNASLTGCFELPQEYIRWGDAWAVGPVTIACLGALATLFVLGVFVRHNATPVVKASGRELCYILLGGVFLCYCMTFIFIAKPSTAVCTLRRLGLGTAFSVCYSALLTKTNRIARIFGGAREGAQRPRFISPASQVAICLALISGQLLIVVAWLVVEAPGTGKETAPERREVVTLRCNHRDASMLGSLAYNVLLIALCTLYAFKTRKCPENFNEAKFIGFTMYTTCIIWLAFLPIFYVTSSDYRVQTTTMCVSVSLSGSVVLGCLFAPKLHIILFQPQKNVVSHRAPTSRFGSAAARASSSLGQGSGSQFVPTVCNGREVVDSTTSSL

mGluR2 in rat brain = mGluR2 in rat brain (Rattus norvegicus, UniProt P31421); assay: In vivo PET imaging of [11C]1 in rat brain with blocking studies
mGluR2 in rat brain, sequence (P31421 19-872): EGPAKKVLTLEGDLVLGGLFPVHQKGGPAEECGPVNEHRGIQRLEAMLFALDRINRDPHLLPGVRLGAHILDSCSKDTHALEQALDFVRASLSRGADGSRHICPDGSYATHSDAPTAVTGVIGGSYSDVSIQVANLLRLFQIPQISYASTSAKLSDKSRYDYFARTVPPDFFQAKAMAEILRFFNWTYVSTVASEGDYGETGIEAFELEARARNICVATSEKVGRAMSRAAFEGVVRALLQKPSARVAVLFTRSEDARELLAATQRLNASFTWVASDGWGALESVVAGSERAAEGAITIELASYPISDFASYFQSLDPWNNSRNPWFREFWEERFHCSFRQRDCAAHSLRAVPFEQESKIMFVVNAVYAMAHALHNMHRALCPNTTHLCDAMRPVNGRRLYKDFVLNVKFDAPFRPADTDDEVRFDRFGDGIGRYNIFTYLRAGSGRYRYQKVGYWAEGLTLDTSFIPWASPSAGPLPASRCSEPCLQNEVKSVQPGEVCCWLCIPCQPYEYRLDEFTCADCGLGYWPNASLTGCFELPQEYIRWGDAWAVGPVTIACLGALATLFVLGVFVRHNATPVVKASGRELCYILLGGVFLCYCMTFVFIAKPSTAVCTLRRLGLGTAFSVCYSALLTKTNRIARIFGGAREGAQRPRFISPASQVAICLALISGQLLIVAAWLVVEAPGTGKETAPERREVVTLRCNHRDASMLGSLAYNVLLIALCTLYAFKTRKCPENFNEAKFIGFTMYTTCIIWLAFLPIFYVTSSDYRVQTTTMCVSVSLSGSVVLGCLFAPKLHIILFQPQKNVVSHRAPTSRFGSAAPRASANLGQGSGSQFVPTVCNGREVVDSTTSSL
Description: The rats were adjusted into the scanner for imaging position (Triumph II Preclinical Imaging System, Trifoil Imaging, LLC, Northridge, Calif.). The vital signs such as heart rate and/or breathing were monitored throughout the imaging. […] The “cold” compounds were administered (i.v., 4 mg/kg) 10 min before the radioactivity. CT scan was performed after every PET imaging study to obtain anatomical information and correction for attenuation. […] The ROIs, i.e., whole brain, thalamus, cerebellum, striatum, and cortex, were drawn onto coronal PET slices according to the brain outlines as derived from the rat brain atlas and corresponding TACs (time-activity curves) were created by PMOD 3.2 (PMOD Technologies Ltd., Zurich, Switzerland). Percent changes between the control and blocking studies were calculated in the selected brain areas at the 10-30 min time window after injection of [^11C]1.
The characterization of [11C]1 was conducted with rat (male Sprague-Dawley) studies. […] The rats were adjusted into the scanner for imaging position (Triumph II, Trifoil Imaging Inc, Northridge, Calif.). The vital signs such as heart rate and/or breathing were monitored throughout the imaging. […] When the blocking studies were done the imaging procedures started with the baseline study using [^11C]1 followed by 2 hrs later the blocking agent and another administration of [^11C]1 in the same animal. The blocking agent was administered intravenously 2 min before injection of the second [^11C]1 if self-blocking, 10 min before [^11C]1 if blocking was with JNJ The dynamic PET data was acquired starting from the injection of radioactivity and continued for 60 min. After the dynamic PET data acquisition CT imaging was done to obtain data for attenuation as well as anatomical information of the brain. […] Percent changes between the control and blocking studies were calculated in all brain areas. […]

recombinant human P-gp = recombinant human P-gp (Homo sapiens, UniProt P08183); assay: P-gp ATPase assay (Pgp-Glo assay); assay type: biochemical; details: human P-gp membrane, verapamil as positive control
recombinant human P-gp, sequence (P08183 whole entry): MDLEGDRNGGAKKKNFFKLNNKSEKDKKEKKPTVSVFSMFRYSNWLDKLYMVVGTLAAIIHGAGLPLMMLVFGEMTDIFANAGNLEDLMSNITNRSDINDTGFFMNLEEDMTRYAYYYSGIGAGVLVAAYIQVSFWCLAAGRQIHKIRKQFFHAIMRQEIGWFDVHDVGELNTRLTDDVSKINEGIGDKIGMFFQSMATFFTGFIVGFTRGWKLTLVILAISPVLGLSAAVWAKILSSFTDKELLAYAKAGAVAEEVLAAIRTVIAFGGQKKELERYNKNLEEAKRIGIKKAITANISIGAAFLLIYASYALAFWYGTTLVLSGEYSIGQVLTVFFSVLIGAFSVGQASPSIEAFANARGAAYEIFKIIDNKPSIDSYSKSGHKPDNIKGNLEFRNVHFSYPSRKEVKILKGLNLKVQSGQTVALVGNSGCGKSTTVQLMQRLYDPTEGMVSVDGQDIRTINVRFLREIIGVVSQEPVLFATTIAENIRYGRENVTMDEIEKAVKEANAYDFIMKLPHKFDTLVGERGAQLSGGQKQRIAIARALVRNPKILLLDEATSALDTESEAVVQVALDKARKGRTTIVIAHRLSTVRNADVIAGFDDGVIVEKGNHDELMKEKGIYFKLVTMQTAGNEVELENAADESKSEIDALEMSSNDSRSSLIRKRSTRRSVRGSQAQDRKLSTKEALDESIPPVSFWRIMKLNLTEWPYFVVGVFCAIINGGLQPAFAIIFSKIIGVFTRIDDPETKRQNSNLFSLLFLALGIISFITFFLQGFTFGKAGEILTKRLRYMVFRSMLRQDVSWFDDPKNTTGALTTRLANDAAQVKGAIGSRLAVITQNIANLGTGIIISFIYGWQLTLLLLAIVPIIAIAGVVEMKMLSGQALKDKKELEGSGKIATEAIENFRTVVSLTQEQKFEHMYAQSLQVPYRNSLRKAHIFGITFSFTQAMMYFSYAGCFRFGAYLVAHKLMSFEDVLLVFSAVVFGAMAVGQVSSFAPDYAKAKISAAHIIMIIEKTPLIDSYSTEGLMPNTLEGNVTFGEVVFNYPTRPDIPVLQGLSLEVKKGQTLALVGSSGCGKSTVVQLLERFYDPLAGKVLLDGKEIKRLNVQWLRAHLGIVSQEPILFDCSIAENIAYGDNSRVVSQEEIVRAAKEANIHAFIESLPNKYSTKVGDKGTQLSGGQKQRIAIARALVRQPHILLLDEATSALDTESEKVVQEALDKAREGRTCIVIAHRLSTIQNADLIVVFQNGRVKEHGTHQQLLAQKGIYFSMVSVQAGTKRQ
Description: P-gp ATPase activity was measured with the Pgp-Glo™ assay system with human P-gp membrane by following the manufacturer's instructions (Promega, Co. USA). The assay relies on the ATP dependence of the light-generating reaction of firefly luciferase. Briefly, 25 μg of P-gp membrane was incubated at 37° C. with one of these samples including Na3VO4 (100 μM), solvent control (0.1% DMSO), quercetin (100 μM), the test compound (200 μM), verapamil (100 μM), verapamil (100 μM) plus the test compound (100 μM). The ATPase reaction was initiated by addition of MgATP (5 mM) and followed by incubation for 40 min at 37° C. The reaction was stopped, and the remaining unmetabolized ATP was detected as a luciferase-generated luminescence signal by addition of ATP detection reagent. Following a room-temperature signal-stabilization period (20 min), luminescence was read on a Veritas microplate luminometer (Tuner Designs, San Francisco, Calif.). P-gp ATPase activity was presented as a drop-in luminescence of samples compared to that treated with Na3VO4.
We further evaluated compounds 1, 2, and 7 using Pgp-Go™ assay to investigate whether the brain penetration will be affected by P-glycoprotein (P-gp) efflux transporter. The Pgp-Go™ assay [see ref. 63] was carried out on recombinant human P-gp in a cell membrane fraction. […]

[4] = Ex vivo whole body biodistribution of [11C]1; assay type: in vivo, Sprague Dawley rats
Description: The quantitative biodistribution of [^11C]1 was done using 16 healthy Sprague Dawley rats (weight 330-370 g). After anesthetization (2% isoflurane with oxygen flow of 1.5 L/min) the rats were administrated with the [^11C]1 (30-42 MBq (0.81-1.14 mCi) using tail vein injection and sacrificed by decapitation at the time points 5, 20, 30 or 40 min after administration of the radioactivity. The tissue samples including blood, midbrain, cerebellum, cortex, lung, heart, liver, spleen, kidney and muscle were rapidly collected into pre-weighted gamma-counting tubes and measured with standards (samples of [^11C]1) using PerkinElmer Wizard2 2480 gamma-counter. Tubes were weighted, and the net mass of the tissue samples was determined and the percent of the injected radioactivity (% ID/g) in the samples was calculated.
The ex vivo biodistribution was performed in 16 normal male Sprague Dawley rats after intravenous injection of [^11C]1 at several time points (5, 20, 30 and 40 min). The uptake value is expressed in the unit of % ID/g. […] The highest accumulation was measured in the liver (2.73±0.02% ID/g) followed by kidney (1.05±0.07% ID/g), spleen (0.67±0.05% ID/g), lung (0.59±0.04% ID/g), and heart (0.58±0.05% ID/g). […] The average accumulation of [^11C]1 in the rat brain at 5 min was (0.49±0.07% ID/g) (FIG. 22).

## COc1cc(C(F)(F)F)ccc1C1CCN(Cc2nc3nccc4c3n2CCC4)CC1 [Compound 2]
Determination of Log P
  Log P: 3.86
[1]; equilibrium dialysis, 10 μM
  plasma protein binding: 88.7%
[1]; read-out: plasma free fraction
  fraction unbound at 5 h, 10 μM: > 0.1
[2]
  stability in rat plasma: much more stable than diltiazem
[3]
  microsomal stability: reasonable microsomal stability
mGluR2
  pEC50: 8.30

## Fc1ccc(N2CCN(Cc3ccn4c(CC5CC5)nnc4c3C(F)(F)F)CC2)c(F)c1 [Compound 3, 8-Trifluoromethyl-3-cyclopropylmethyl-7-[(4-(2,4-difluorophenyl)-1-piperazinyl)methyl]-1,2,4-triazolo[4,3-a]pyridine, reference compound]
mGluR2 in rat brain; 4 mg/kg i.v. 10 min before [11C]1, 10-30 min time window
  decrease of [11C]1 uptake in different brain areas after pretreatment: 28-37%

## COc1cc(C(F)(F)F)ccc1OC[C@@H]1[C@H]2CN(Cc3nc4ncccc4n3C)C[C@@H]12 [Compound 7]
Determination of Log P; n-octanol/water
  log P: 3.3
Recombinant human P-gp
  P-gp substrate assessment / P-gp ATPase activity: a potential P-gp substrate

## Cn1c(CN2CCC(c3ccc(C(F)(F)F)cc3O[11CH3])CC2)nc2ncccc21 [[^11C]1]
[4]; i.v. [11C]1, brain at 5 min
  average accumulation in the rat brain: 0.49±0.07 % ID/g
[4]; rat, i.v. [11C]1, heart
  highest accumulation in heart: 0.58±0.05 % ID/g
[4]; rat, i.v. [11C]1, kidney
  highest accumulation in kidney: 1.05±0.07 % ID/g
[4]; rat, i.v. [11C]1, liver
  highest accumulation in liver: 2.73±0.02 % ID/g
[4]; rat, i.v. [11C]1, lung (maximum at 20 min)
  highest accumulation in lung: 0.59±0.04 % ID/g
[4]; rat, i.v. [11C]1, spleen
  highest accumulation in spleen: 0.67±0.05 % ID/g
mGluR2 in rat brain; rat PET, n=9
  SUVmax in brain: 1.8±0.2
mGluR2 in rat brain; rat PET, thalamus at 2 min post-injection
  maximum SUV (time-activity curves): 2.3
